Measurements reported in paper PMC3164168 (PLoS ONE, 2011).
“Also recorded” adds a separate entry of the source. Like-named read-outs stand apart in the source and are kept apart here.

Key:
[1] = test system: pp28-luciferase Towne CMV; experiment: microbe, parasite or virus in culture; assay type: cell-based, human cytomegalovirus; conditions: for inhibition of late pp28 gene expression (luciferase activity): 72 hpi; for SI (selectivity index, ratio of CC50 to EC50): CC50 in HFF / anti-CMV EC50; for EC50: Human betaherpesvirus 5; for difference in SI versus parent alcohol: 838 vs 606, 832-4 vs 760
Source text: The pp28-luciferase Towne strain was constructed as previously described. Briefly, the recombinant virus, which expresses luciferase under the control of UL99 (pp28) late promoter was generated by insertion of the reporter gene between the US9 and US10 open reading frames (ORFs) in the Towne genome. […] The ganciclovir (GCV)-resistant strain was obtained from a patient with CMV disease. […] This clinical isolate was provided by the clinical virology laboratory with no identifiers that can link to a specific subject. The Johns Hopkins Office of Human Subject Research Institutional Review Board determined that this research qualified for an exemption.
(§1) Human Foreskin Fibroblasts (HFF) passage 12–16 (ATCC, CRL-2088™) were grown in Dulbecco's Modified Eagle Medium (DMEM) containing 10% fetal bovine serum (Gibco, Carlsbad, CA) in a 5% CO2 incubator at 37°C and used for infections with pp28-luciferase Towne CMV or the GCV-resistant strain. One day prior to infection with the pp28-luciferase, 4×10^4 HFF cells were seeded on each well of 24-well tissue culture plates. Infection was carried out at multiplicity of infection of 1 PFU/cell (MOI = 1). Following 90 minute adsorption, media containing virus was removed and replaced by DMEM with 4% fetal bovine serum (Gibco, Carlsbad, CA) containing anti-viral compounds. The concentration of each compound was calculated and adjusted by volume such that it was constant throughout the experiment.
(§2) Infected and treated HFF cells were collected 72 hpi and washed once with PBS. The lysates were assayed for luciferase and cell viability using a Luciferase Assay Kit (Promega, Madison, WI) and CellTiter-Glo Luminescent Cell Viability Assay Kit, respectively, on GloMax®-Multi+ Detection System (Promega) according to manufacturer's instructions.

[2] = CellTiter-Glo Luminescent Cell Viability assay in HFF; assay type: cell-based; conditions: human
Experimental: as §1, §2

[3] = test system: HeLa (cervical adenocarcinoma); experiment: MTT cancer cell growth assay, HeLa; assay type: cell-based, human; conditions: for CC50: read-out: CC50 HeLa
Experimental: (§3) HeLa (Human Cervical Adenocarcinoma), HCT116 (Human Colorectal Carcinoma) and 1205Lu (Human Melanoma) cells (all from ATCC) were maintained in DMEM containing 10% fetal bovine serum. 12–16 hours prior to drug treatment, 3×10^3 to 5×10^3 cells were seeded on each well of 96-well tissue culture plates. Drugs were diluted in DMEM containing 10% fetal bovine serum and applied to the cells. 72 hours after drug treatment, 20 µl of MTT solution (5 mg/ml in PBS) was added into each well, followed by shaking the plates at 150 rpm for 5 minutes and an incubation of 4 hours (37°C, 5% CO2). Media was removed, plates dried and each well was resuspended in 100 µl MTT formazan/DMSO. The absorbance of each well was recorded at 560 nm on GloMax®-Multi+ Detection System (Promega).

1205Lu (melanoma) = experiment: MTT cancer cell growth assay, 1205Lu; assay type: cell-based, human; conditions: for CC50: read-out: CC50 1205Lu
Experimental: as §3

[4] = test system: HCT116 (colorectal carcinoma); experiment: MTT cancer cell growth assay, HCT116; assay type: cell-based, human; conditions: for CC50: read-out: CC50 HCT116
Experimental: as §3

[5] = test system: GCV-resistant CMV strain (UL97 mutation H520Q); experiment: Plaque reduction assay, GCV-resistant CMV strain; assay type: cell-based, human cytomegalovirus; conditions: for inhibition of plaque formation, GCV-resistant CMV strain: 0.1 µM, plaques counted 21 days after infection
Source text: The pp28-luciferase Towne strain was constructed as previously described. Briefly, the recombinant virus, which expresses luciferase under the control of UL99 (pp28) late promoter was generated by insertion of the reporter gene between the US9 and US10 open reading frames (ORFs) in the Towne genome. […] We have recently reported that the pp28-luciferase reporter system is sensitive, reproducible and highly correlates with plaque reduction. The ganciclovir (GCV)-resistant strain was obtained from a patient with CMV disease. […] This clinical isolate was provided by the clinical virology laboratory with no identifiers that can link to a specific subject. The Johns Hopkins Office of Human Subject Research Institutional Review Board determined that this research qualified for an exemption.
Human lung fibroblasts (HEL) passage 8–12 (ATCC, CCL-137™) were grown in DMEM containing 10% fetal bovine serum. One day prior to infection, 3×10^5 cells were seeded on each well of 12-well tissue culture plates. GCV-resistant CMV was diluted in DMEM to a desired concentration which gave around 100 plaques per well and added to each well in duplicates. Plates were incubated for 90 minutes with shaking every 10 min; thereafter drugs were added and a methylcellulose overlay applied to each well. After incubation for 21 days, cells were stained with crystal violet and plaques were counted under microscope at 40× magnification.

HFF = experiment: CellTiter-Glo Luminescent Cell Viability assay in HFF; assay type: cell-based
Experimental: as §1, §2

[6] = Homo sapiens, HeLa, MTT 72 hr after treatment
[7] = Homo sapiens, 1205Lu, MTT 72 hr after treatment
[8] = Homo sapiens, HCT-116, MTT 72 hr after treatment
[9] = HFF, 72 h, measured at 1 µM to 100 µM, read-out: CC50

Row | SMILES | inhibition of late pp28 gene expression (luciferase activity) ([1]; 0.1 µM) | SI (selectivity index, ratio of CC50 to EC50) [1] | EC50 [1] | CC50 [3, 6] | CC50 (1205Lu (melanoma); [7]) | CC50 [4, 8] | also measured
1 | CC1CCC2C(C)C(CC(CSc3ccc(COC(=O)N(C)C)cc3)CC3OC4OC5(C)CCC6C(C)CCC(C3C)C46OO5)OC3OC4(C)CCC1C32OO4 (centres unmarked) [800-4, Dimer isobu-SPh-4-CH2OC(O)NMe2] | not active |  |  |  |  |  | inhibition of late pp28 gene expression (luciferase activity) ([1]; 0.3 µM): active
2 | CC1CCC2C(C)C(CC(CSc3cccc(COC(=O)N(C)C)c3)CC3OC4OC5(C)CCC6C(C)CCC(C3C)C46OO5)OC3OC4(C)CCC1C32OO4 (centres unmarked) [800-3, Dimer isobu-SPh-3-CH2OC(O)NMe2] | not active |  |  |  |  |  | inhibition of late pp28 gene expression (luciferase activity) ([1]; 0.3 µM): active
3 | CC1CCC2C(C)C(CC(CC3OC4OC5(C)CCC6C(C)CCC(C3C)C46OO5)CS(=O)(=O)c3ccc(CO)cc3)OC3OC4(C)CCC1C32OO4 (centres unmarked) [compound 760, Dimer isobu-SO2Ph-4-CH2OH] |  | 34.5±2 | 0.14 ± 0.008 µM | 0.56 ± 0.18 µM | 0.1 ± 0.006 µM | 0.07 ± 0.005 µM | CC50 at 72 h [2]: 4.9 ± 0.2 µM
4 | Nc1nc(O)c2ncn(COC(CO)CO)c2n1 [GCV, Ganciclovir, reference compound] | no inhibition at all | 96±14 | 2.7 ± 0.1 µM | > 50 µM | > 50 µM | > 50 µM | CC50 at 72 h [2, 9]: 247 ± 33.4 µM; plaque formation, GCV-resistant CMV strain ([5]; GCV at 5 µM, 21 days): obvious resistance; EC50 ([5]; Human betaherpesvirus 5, read-out: EC50 of GCV for the GCV-resistant strain): 7.6 µM
5 | C[C@H]1[C@H](OC(=O)CCC(=O)O)O[C@@H]2O[C@@]3(C)CC[C@H]4[C@H](C)CC[C@@H]1[C@@]24OO3 [artesunate, Artesunate, reference compound] |  | 11±0.9 | 6.6 ± 0.4 µM | 7.1 ± 0.4 µM | 42 ± 2.4 µM | 11.3 ± 0.6 µM | CC50 at 72 h [2, 9]: 71.7 ± 4 µM
6 | CC1CCC2C(C)C(CCCS(=O)(=O)c3ccc(COC(=O)N(C)C)cc3)OC3OC4(C)CCC1C32OO4 (centres unmarked) [compound 551, Art-PrSO2Ph-4-CH2OC(O)NMe2] |  |  |  |  |  |  | inhibition of late pp28 gene expression (luciferase activity) ([1]; 1 µM): did not
7 | C[C@H]1[C@@H](CCC(=O)Nc2ccc(F)cc2)O[C@@H]2OC3(C)CC[C@H]4[C@H](C)CC[C@@H]1[C@@]24OO3 [Artefanilide] |  |  |  |  |  |  | CC50 (HFF): 44.9 ± 3.4 µM; CC50 ([3]; MTT 72 hr after treatment): > 50 µM; CC50 (1205Lu (melanoma); MTT 72 hr after treatment): > 50 µM; CC50 ([4]; MTT 72 hr after treatment): 40 ± 7.9 µM
8 | CC1CCC2C(C)C(CC(CO)CC3OC4OC5(C)CCC6C(C)CCC(C3C)C46OO5)OC3OC4(C)CCC1C32OO4 (centres unmarked) [compound 606, Dimer isobu-OH] |  | 292±21 | 0.16 ± 0.008 µM | 1.06 ± 0.2 µM | 4.9 ± 0.04 µM | 0.1 ± 0.001 µM | CC50 at 72 h [2]: 48.1 ± 2.6 µM
9 | CC1CCC2C(C)C(CC(CC3OC4OC5(C)CCC6C(C)CCC(C3C)C46OO5)CS(=O)(=O)c3ccc(COC(=O)N(C)C)cc3)OC3OC4(C)CCC1C32OO4 (centres unmarked) [832-4, Dimer isobu-SO2Ph-4-CH2OC(O)NMe2] | highly inhibitory |  | 0.07 ± 0.004 µM | 0.27 ± 0.03 µM | 0.13 ± 0.007 µM | 0.07 ± 0.006 µM | effectiveness in CMV inhibition versus monomer 551 [1]: at least 150 fold; difference in SI versus parent alcohol [1]: 30 fold; CC50 at 72 h [2]: 57.5 ± 2.9 µM; cellular toxicities at concentrations of complete CMV inhibition (HFF): not observed; inhibition of plaque formation, GCV-resistant CMV strain [5]: fully inhibited
10 | CC1CCC2C(C)C(CC(COP(=O)(Oc3ccccc3)Oc3ccccc3)CC3OC4OC5(C)CCC6C(C)CCC(C3C)C46OO5)OC3OC4(C)CCC1C32OO4 (centres unmarked) [compound 838, Dimer isobu-OP(O)(OPh)2] | highly inhibitory |  | 0.04 ± 0.003 µM |  |  |  | SI versus artesunate [1]: 134 fold; anti-CMV potency versus artesunate (using EC50 values) [1]: 165 fold; difference in SI versus parent alcohol [1]: 5 fold; CC50 at 72 h [2, 9]: 55.8 ± 2.8 µM; cellular toxicities at concentrations of complete CMV inhibition (HFF; HFF): not observed; inhibition of plaque formation, GCV-resistant CMV strain [5]: fully inhibited; also recorded: highly active; potency in inhibiting growth versus artesunate, HeLa [3]: 37 fold; CC50 ([3]; Homo sapiens, HeLa, 72 h): 0.19 ± 0.08 µM; potency in inhibiting growth versus artesunate, 1205Lu (1205Lu (melanoma)): at least 200 fold; CC50 (1205Lu (melanoma); Homo sapiens, 1205Lu, 72 h): 0.06 ± 0.002 µM; potency in inhibiting growth versus artesunate, HCT116 [4]: at least 200 fold; CC50 ([4]; Homo sapiens, HCT-116, 72 h): 0.04 ± 0.005 µM
11 | CC1CCC2C(C)C(CC(CC3OC4OC5(C)CCC6C(C)CCC(C3C)C46OO5)CS(=O)(=O)c3cccc(COC(=O)N(C)C)c3)OC3OC4(C)CCC1C32OO4 (centres unmarked) [832-3, Dimer isobu-SO2Ph-3-CH2OC(O)NMe2] | not active |  |  |  |  |  | inhibition of late pp28 gene expression (luciferase activity) ([1]; 0.3 µM): active
